The record followed here is patent US9957274B2, “Indane inhibitors of EED and methods of their use” (AbbVie Inc., priority 2016, dated 2018).

For orientation: pIC50 means −log10 of the IC50, conventionally taken in molar units. A lower pIC50 goes with a large IC50.

In this experiment the target is EED (Homo sapiens, UniProt O75530). Kind of experiment: EED TR-FRET Binding Assay (modified LanthaScreen competition assay). As for the experimental part: Compounds were tested in a modified LanthaScreen competition assay.
EED, sequence (O75530 whole entry): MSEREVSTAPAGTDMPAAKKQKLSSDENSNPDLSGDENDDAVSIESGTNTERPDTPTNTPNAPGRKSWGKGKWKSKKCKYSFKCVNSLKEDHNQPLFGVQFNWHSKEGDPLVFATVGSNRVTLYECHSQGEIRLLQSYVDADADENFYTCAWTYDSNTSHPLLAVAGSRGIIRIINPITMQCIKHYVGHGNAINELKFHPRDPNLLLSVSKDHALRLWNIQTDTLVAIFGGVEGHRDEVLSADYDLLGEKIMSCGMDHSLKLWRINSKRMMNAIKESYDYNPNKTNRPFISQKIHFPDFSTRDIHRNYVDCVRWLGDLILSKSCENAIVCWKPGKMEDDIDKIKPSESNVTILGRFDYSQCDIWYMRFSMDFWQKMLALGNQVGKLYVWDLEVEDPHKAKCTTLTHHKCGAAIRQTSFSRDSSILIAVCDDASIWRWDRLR
The following buffer was used to set up the binding reactions: 20 mM Tris-HCl pH 7.5, 200 mM NaCl, 0.01% Tween-20, 10 uM DTT (dithiothreitol), and 0.05% BSA (bovine serum albumin), with the DTT and BSA added fresh prior to initiating the binding assay. […] The reactions were then incubated for 1 hour at 25° C. in a humidified chamber prior to detection on the Perkin Elmer Envision plate reader using a Lanthascreen TR-FRET protocol.

pIC50: −log10 of the molar value.

With `CN(C)[C@H]1CN([C@@H]2C[C@@H](O)c3cccc(F)c32)C[C@@H]1c1ccc(S(C)(=O)=O)cc1` (mixture of isomers) [Example 16, rac-(1R,3R)-3-{(3R,4S)-3-(dimethylamino)-4-[4-(methanesulfonyl)phenyl]pyrrolidin-1-yl}-4-fluoro-2,3-dihydro-1H-inden-1-ol], the negative logarithm of the IC50 (pIC50) was 6.31.
`CN(C)[C@H]1CN([C@H]2C[C@H](O)c3cccc(F)c32)C[C@@H]1c1ccc(S(C)(=O)=O)cc1` (mixture of isomers) [Example 18, rac-(1S,3S)-3-{(3R,4S)-3-(dimethylamino)-4-[4-(methanesulfonyl)phenyl]pyrrolidin-1-yl}-4-fluoro-2,3-dihydro-1H-inden-1-ol]: the pIC50 is 7.79.
Turning to `CN(C)[C@H]1CN([C@H]2C[C@@H](O)c3cccc(F)c32)C[C@@H]1c1ccc(S(C)(=O)=O)cc1` (mixture of isomers) [Example 34, rac-(1R,3S)-3-{(3R,4S)-3-(dimethylamino)-4-[4-(methanesulfonyl)phenyl]pyrrolidin-1-yl}-4-fluoro-2,3-dihydro-1H-inden-1-ol], the pIC50 was 6.98.
`CN(C)[C@H]1CN([C@H]2CCc3cccc(F)c32)C[C@@H]1c1cn(C)c2cccnc12` (mixture of isomers) [Example 138, rac-(3R,4S)-1-[(1S)-7-fluoro-2,3-dihydro-1H-inden-1-yl]-N,N-dimethyl-4-(1-methyl-1H-pyrrolo[3,2-b]pyridin-3-yl)pyrrolidin-3-amine] gave a pIC50 of 6.92.
Turning to `CN(C)[C@@H]1CN([C@@H]2CCc3cccc(F)c32)C[C@H]1C1COc2ccccc21` (mixture of isomers) [Example 139, rac-(3S,4R)-4-(2,3-dihydro-1-benzofuran-3-yl)-1-[(1R)-7-fluoro-2,3-dihydro-1H-inden-1-yl]-N,N-dimethylpyrrolidin-3-amine], the pIC50 was 7.08.
Next, `CN(C)[C@H]1CN([C@@H]2CCc3cccc(F)c32)C[C@@H]1C1COc2ccccc21` (mixture of isomers) [Example 142, rac-(3R,4S)-4-(2,3-dihydro-1-benzofuran-3-yl)-1-[(1R)-7-fluoro-2,3-dihydro-1H-inden-1-yl]-N,N-dimethylpyrrolidin-3-amine]: 7.59; `CN(C)[C@H]1CN([C@@H]2CCc3cccc(F)c32)C[C@@H]1c1cn(C)c2cccnc12` (mixture of isomers) [Example 143, rac-(3R,4S)-1-[(1R)-7-fluoro-2,3-dihydro-1H-inden-1-yl]-N,N-dimethyl-4-(1-methyl-1H-pyrrolo[3,2-b]pyridin-3-yl)pyrrolidin-3-amine]: 7.71; `COC(=O)c1ccc([C@H]2CN(C3CCc4cccc(Cl)c43)C[C@@H]2N(C)C)cc1` (mixture of isomers) [Example 21, rac-methyl 4-[(3S,4R)-1-(7-chloro-2,3-dihydro-1H-inden-1-yl)-4-(dimethylamino)pyrrolidin-3-yl]benzoate]: 7.15.
Take `Cc1cc([C@H]2CN(C3CCc4cccc(F)c43)C[C@@H]2N(C)C)ccc1Br` (mixture of isomers) [Example 27, rac-(3R,4S)-4-(4-bromo-3-methylphenyl)-1-(7-fluoro-2,3-dihydro-1H-inden-1-yl)-N,N-dimethylpyrrolidin-3-amine]: the negative-log IC50 (pIC50) is 8.74.
Compound `CN(C)[C@H]1CN(C2CCc3cccc(Cl)c32)C[C@@H]1c1ccc(C(=O)O)cc1` (mixture of isomers) [Example 28, rac-4-[(3S,4R)-1-(7-chloro-2,3-dihydro-1H-inden-1-yl)-4-(dimethylamino)pyrrolidin-3-yl]benzoic acid] showed a pIC50 of 6.31.
In turn, `CN(C)[C@@H]1CN(C2CCc3cccc(F)c32)C[C@H]1c1ccc(C(=O)O)cc1` (mixture of isomers) [Example 29, rac-4-[(3R,4S)-4-(dimethylamino)-1-(7-fluoro-2,3-dihydro-1H-inden-1-yl)pyrrolidin-3-yl]benzoic acid] showed a negative logarithm of the IC50 (pIC50) of 7.63.
Next, `Cc1cc([C@H]2CN(C3CCc4cccc(F)c43)C[C@@H]2N(C)C)ccc1C(=O)O` (mixture of isomers) [Example 36, rac-4-[(3S,4R)-4-(dimethylamino)-1-(7-fluoro-2,3-dihydro-1H-inden-1-yl)pyrrolidin-3-yl]-2-methylbenzoic acid]: 7.84; `Cc1cc([C@H]2CN(C3c4ccccc4CC3O)C[C@@H]2N(C)C)ccc1C#N` (mixture of isomers) [Example 38, rac-4-[(3S,4R)-4-(dimethylamino)-1-(2-hydroxy-2,3-dihydro-1H-inden-1-yl)pyrrolidin-3-yl]-2-methylbenzonitrile]: 7.16; `COC(=O)c1ccc([C@H]2CN(C3CCc4cccc(F)c43)C[C@@H]2N(C)C)cc1C` (mixture of isomers) [Example 39, rac-methyl 4-[(3S,4R)-4-(dimethylamino)-1-(7-fluoro-2,3-dihydro-1H-inden-1-yl)pyrrolidin-3-yl]-2-methylbenzoate]: 8.97.
The compound `CN1CCN(C(=O)c2ccc([C@H]3CN(C4CCc5cccc(F)c54)C[C@@H]3N(C)C)cc2)CC1=O` (mixture of isomers) [Example 51, rac-4-{4-[(3S,4R)-4-(dimethylamino)-1-(7-fluoro-2,3-dihydro-1H-inden-1-yl)pyrrolidin-3-yl]benzoyl}-1-methylpiperazin-2-one] gave a negative logarithm of the IC50 (pIC50) of 7.91.
`CN(C)[C@H]1CN(C2CCc3cccc(F)c32)C[C@@H]1c1ccc(C(=O)N2CCN(S(C)(=O)=O)CC2)cc1` (mixture of isomers) [Example 53, rac-{4-[(3S,4R)-4-(dimethylamino)-1-(7-fluoro-2,3-dihydro-1H-inden-1-yl)pyrrolidin-3-yl]phenyl}[4-(methanesulfonyl)piperazin-1-yl]methanone] had a pIC50 of 7.91.
Take `CC(=O)N1CCN(C(=O)c2ccc([C@H]3CN(C4CCc5cccc(F)c54)C[C@@H]3N(C)C)cc2)CC1` (mixture of isomers) [Example 55, rac-1-(4-{4-[(3S,4R)-4-(dimethylamino)-1-(7-fluoro-2,3-dihydro-1H-inden-1-yl)pyrrolidin-3-yl]benzoyl}piperazin-1-yl)ethan-1-one]: the negative logarithm of the IC50 (pIC50) is 7.88.
For the compound `CCS(=O)(=O)N1CCN(C(=O)c2ccc([C@H]3CN(C4CCc5cccc(F)c54)C[C@@H]3N(C)C)cc2)CC1` (mixture of isomers) [Example 57, rac-{4-[(3S,4R)-4-(dimethylamino)-1-(7-fluoro-2,3-dihydro-1H-inden-1-yl)pyrrolidin-3-yl]phenyl}[4-(ethanesulfonyl)piperazin-1-yl]methanone], the negative logarithm of the IC50 (pIC50) is 7.91.
`Cc1coc(-c2ccc([C@@H]3CN(C4CCc5cccc(F)c54)C[C@H]3N(C)C)cc2)n1` (mixture of isomers) [Example 69, rac-(3S,4R)-1-(7-fluoro-2,3-dihydro-1H-inden-1-yl)-N,N-dimethyl-4-[4-(4-methyl-1,3-oxazol-2-yl)phenyl]pyrrolidin-3-amine]: the pIC50 was 8.41.
Next, `COC(=O)c1ccc2c([C@@H]3CN(C4CCc5cccc(F)c54)C[C@H]3N(C)C)cn(C)c2c1` (mixture of isomers) [Example 83, rac-methyl 3-[(3R,4S)-4-(dimethylamino)-1-(7-fluoro-2,3-dihydro-1H-inden-1-yl)pyrrolidin-3-yl]-1-methyl-1H-indole-6-carboxylate]: 7.96; `COC(=O)c1cccc2c([C@H]3CN(C4CCc5cccc(F)c54)C[C@@H]3N(C)C)cn(C)c12` (mixture of isomers) [Example 85, rac-methyl 3-[(3S,4R)-4-(dimethylamino)-1-(7-fluoro-2,3-dihydro-1H-inden-1-yl)pyrrolidin-3-yl]-1-methyl-1H-indole-7-carboxylate]: 9.25.
